Test results as given in patent publication US6576662B2, “Compounds having anticancer activity : process for their preparation and pharmaceutical compositions containing them” (Dr. Reddy's Laboratories Limited, priority 2000, dated 2003).
Read-outs that look alike come from different tables or passages of the source.

Assays:
[1] = system: Human lymphocytes; assay: Lymphocyte proliferation, tritiated thymidine incorporation; assay type: cell-based; settings: Concentration 1 μM; human lymphocytes with Phytohemagglutitin A
Protocol: Human lymphocytes were isolated from whole blood by using Ficoll Hypaque Plus (Amersham). On day one, 1 million lymphocytes were seeded into each well of 96 well plate in 100 μL volume of RPMI 1640 medium containing 10% FCS and Phytohemagglutitin A at 1 μg/well concentration. Plates were incubated at 37° C. in CO2 incubator for 24 h. Test compounds at various concentrations were added to test wells and only medium with vehicle was added to control wells. After 48 h of incubation […] of tritiated thymidine was added to each well. After 24 h of thymidine addition the cells were harvested and the incorporated radioactivity was determined. Stimulation Index (SI) was calculated using the formula, [formula]
A^T=Average CPM of treated wells,
A^C=Average CPM of control wells.

[2] = system: MCF-7/ADR; assay: in vitro anti-cancer screen, Sulforhodamine B method; assay type: cell-based, human; settings: BREAST: MCF-7/ADR, 48 h incubation, read-out: GROWTH INHIBITION (GI 50)
Protocol: (§1) Each test compound was screened against a battery of cell lines representing eight different types of cancers. In a typical procedure, 1×10^4 cells were seeded into each well of 96 well plate in 100 μL volume of RPMI 1640 medium containing antibiotics and 10% FCS.
(§2) The plates were incubated at 37° C. in presence of CO2. After 24 h, test compounds were evaluated at five 10 fold dilutions ranging from 100 to 0.01 μM. To each test well 100 μL of test compound solution was added and medium with vehicle was added to control wells and the plates were further incubated. After 48 h of incubation, plates were terminated by Sulforhodamine B method.
(§3) The optical density which is proportional to protein mass, is then-read by automated spectrophotometric plate reader at a wavelength of 515 nm.

[3] = system: H522; assay: as above; assay type: cell-based, human; settings: LUNG: H522, 48 h incubation, read-out: GROWTH INHIBITION (GI 50)
Protocol: as §1, §2, §3

[4] = system: MCF7; assay: as above; assay type: cell-based, human; settings: BREAST: MCF7, 48 h incubation, read-out: GROWTH INHIBITION (GI 50)
Protocol: as §1, §2, §3

[5] = system: PA1; assay: as above; assay type: cell-based, human; settings: OVARIAN: PA1, 48 h incubation, read-out: GROWTH INHIBITION (GI 50)
Protocol: as §1, §2, §3

[6] = system: UACC62; assay: as above; assay type: cell-based, human; settings: MELANOMA: UACC62, 48 h incubation, read-out: GROWTH INHIBITION (GI 50)
Protocol: as §1, §2, §3

[7] = system: SW-620; assay: as above; assay type: cell-based, human; settings: COLON: SW-620, 48 h incubation, read-out: GROWTH INHIBITION (GI 50)
Protocol: as §1, §2, §3

[8] = system: U251; assay: as above; assay type: cell-based, human; settings: CNS: U251, 48 h incubation, read-out: GROWTH INHIBITION (GI 50)
Protocol: as §1, §2, §3

[9] = system: SKOV-3; assay: as above; assay type: cell-based, human; settings: OVARIAN: SKOV-3, 48 h incubation, read-out: GROWTH INHIBITION (GI 50)
Protocol: as §1, §2, §3

[10] = system: HT29; assay: as above; assay type: cell-based, human; settings: COLON: HT29, 48 h incubation, read-out: GROWTH INHIBITION (GI 50)
Protocol: as §1, §2, §3

[11] = system: A498; assay: as above; assay type: cell-based, human; settings: RENAL: A498, 48 h incubation, read-out: GROWTH INHIBITION (GI 50)
Protocol: as §1, §2, §3

In the case of C=C1CCC2C(C)(COC(C)=O)C(OC(C)=O)CCC2(C)C1CC(NC(Cc1ccccc1)C(=O)OC)C1=CCOC1=O (centres unmarked) [Example 6, 3,19-Diacetyl-14-deoxy-12-(O-methylphenylalano)andrographolide], the “Stimulation Index (SI)” value [1] is reported as 92.
For C=C1CCC2[C@]3(C)COC(C)(c4ccccc4)OC3CC[C@]2(C)[C@H]1CC(Sc1ccccc1)C1=CCOC1=O (some centres unmarked) [Example 67, 14-Deoxy-3,19-O-(1-phenylethylidene)-12-phenylthio andrographolide], the melting point was 154.1 °C.
C=C1CCC2[C@]3(C)COC(c4ccccc4)OC3CC[C@]2(C)[C@H]1CC(Nc1cccc(C)c1C)C1=CCOC1=O (some centres unmarked) [Example 40, 3,19-O-Benzylidene-14-deoxy-12-(2,3-dimethylanilino)andrographolide] showed a melting point of 118 °C.
Work on C=C1CCC2[C@]3(C)COC(c4ccccc4)OC3CC[C@]2(C)[C@H]1CC(Sc1ccccc1)C1=CCOC1=O (some centres unmarked) [Example 69, 3,19-O-Benzylidene-14-deoxy-12-phenylthio andrographolide] yielded a melting point of 74 to 76 °C.
For C[C@]1(CO)C2CC[C@]3(CO3)[C@H](CC(Sc3ccccc3)C3=CCOC3=O)[C@@]2(C)CC[C@H]1O (some centres unmarked) [Example 54, 14-Deoxy-8,17-epoxy-12-phenylthio andrographolide], the melting point was 90 °C.
C=C1CCC2[C@](C)(CO)[C@H](O)CC[C@]2(C)[C@H]1CC(SCC)C1=CCOC1=O (some centres unmarked) [Example 64, 14-Deoxy-12-ethylthio andrographolide] showed a melting point of 160 °C.
Work on C=C1CCC2[C@]3(C)COC(C)(c4ccccc4)OC3CC[C@]2(C)[C@H]1CC(SCC)C1=CCOC1=O (some centres unmarked) [Example 68, 14-Deoxy-3,19-O-(1-phenylethylidene)-12-ethylthio andrographolide] yielded a melting point of 122.5 to 125 °C.
C=C1CCC2[C@](C)(CO)[C@H](O)CC[C@]2(C)[C@H]1CC([Se]c1ccccc1)C1=CCOC1=O (some centres unmarked) gave a melting point of 186 °C.
Work on C=C1CCC2[C@]3(C)COC(C)(c4ccccc4)OC3CC[C@]2(C)[C@H]1CC(NC(C(=O)OC)c1ccccc1)C1=CCOC1=O (some centres unmarked) [Example 2, 14-Deoxy-12-(O-methylphenylglycino)-3,19-O-(1-phenylethylidene) androgrpaholide] yielded a melting point of 91 °C.
Work on C=C1CCC2[C@](C)(CO)C(O)CC[C@]2(C)[C@H]1CC(NC(C(=O)OC)c1ccccc1)C1=CCOC1=O (some centres unmarked) [Example 19, 14-Deoxy-12-(O-methylphenylglycino)andrographolide] yielded a melting point of 68 °C.
With C=C1CCC2C(C)(COC(C)=O)C(OC(C)=O)CCC2(C)C1CC(NC(CC[Se]C)C(=O)OC)C1=CCOC1=O (centres unmarked) [Example 12, 3,19-Diacetyl-14-deoxy-12-(O-methylselenomethionino)andrographolide] the “Stimulation Index (SI)” value [1] was 40.
C=C1CCC2[C@]3(C)COC(C)(C)OC3CC[C@]2(C)[C@H]1CC(Nc1cccc(C)c1C)C1=CCOC1=O (some centres unmarked) [Example 38, 14-Deoxy-3,19-O-isopropylidene-12-(2,3-dimethylanilino)andrographolide] gave a melting point of 192.5 °C.
For C=C1CCC2[C@](C)(CO)[C@H](O)CC[C@]2(C)[C@H]1CC(Nc1cccc(C)c1C)C1=CCOC1=O (some centres unmarked) [Example 28, 1-(2,3-Dimethylanilino)-14-deoxy andrographolide], the “Stimulation Index (SI)” value [1] was 40.
With C=C1CCC2[C@](C)(COC(C)=O)C(OC(C)=O)CC[C@]2(C)[C@H]1CC(OC(C)=O)C1=CCOC1=O (some centres unmarked) [Example 74, 12-Acetoxy-3,19-diacetyl-14-deoxy andrographolide] the melting point was 152.7 °C.
C=C1CCC2[C@](C)(CO)[C@H](O)CC[C@]2(C)[C@H]1CC(C1=CCOC1=O)n1cc(I)c(=O)[nH]c1=O (some centres unmarked) [Example 53, 14-Deoxy-12-[N^1-(5-iodouracil)]andrographolide] gave a melting point of 187 to 188 °C.
For C=C1CCC2[C@](C)(CO)[C@H](O)CC[C@]2(C)[C@H]1CC(C1=CCOC1=O)n1cc(Br)c(=O)[nH]c1=O (some centres unmarked) [Example 52, 14-Deoxy-12-[N^1-(5-bromouracil)]andrographolide], the melting point was 185 °C.
C=C1CCC2[C@]3(C)COC(C)(c4ccccc4)OC3CC[C@]2(C)[C@H]1CC(NCc1ccccc1)C1=CCOC1=O (some centres unmarked) [Example 21, 12-(N-Benzylamino)-14-deoxy-3,19-O-(1-phenylethylidene)andrographolide] showed a melting point of 149.6 °C, a GI50 ([2]; Homo sapiens, NCI/ADR-RES) of 1 µM and a GI50 ([3]; Homo sapiens, NCI-H522) of 3 µM. The GI50 ([4]; Homo sapiens) was 3 µM, the GI50 ([5]; Homo sapiens, PA-1) was 2 µM and the GI50 ([6]; Homo sapiens, UACC-62) was 2 µM. For the same compound, the GI50 ([7]; Homo sapiens) was 2 µM, the GI50 ([8]; Homo sapiens, U-251) was 2 µM and the GI50 ([9]; Homo sapiens, SK-OV-3) was 2 µM. The GI50 ([10]; Homo sapiens, HT-29) was 3 µM, the GI50 ([11]; Homo sapiens) was 2 µM and the “Stimulation Index (SI)” value [1] was 16.
With C=C1CCC2[C@](C)(CO)[C@H](O)CC[C@]2(C)[C@H]1CC(C1=CCOC1=O)n1ccc(=O)[nH]c1=O (some centres unmarked) [Example 50, 14-Deoxy-12-(N^1-uracil)andrographolide] the melting point was 164 °C.
Work on CCC(=O)OC[C@@]1(C)C2CC[C@]3(CO3)[C@H](CC(OC(=O)CNC(=O)OC(C)(C)C)C3=CCOC3=O)[C@@]2(C)CC[C@H]1OC(=O)CC (some centres unmarked) [Example 77, 12-(N-Bocglycinyloxy)-14-deoxy-8,17-epoxy-3,19-dipropionyl andrographolide] yielded a melting point of 80 °C.
In the case of “3,19-Diacetyl-14-deoxy-12-[N^1-(5-iodouracil)]andrographolide [Example 48]”, the GI50 [2] is reported as 2 µM, the GI50 [3] is reported as 4 µM and the GI50 [4] is reported as 2 µM. The GI50 [5] was 2 µM, the GI50 [6] was 3 µM and the GI50 [7] was 4 µM. It also gave a GI50 [8] of 2 µM, a GI50 [9] of 3 µM and a GI50 [10] of 4 µM. The GI50 [11] was 3 µM and the “Stimulation Index (SI)” value [1] was 130.
Work on C=C1CCC2[C@](C)(CO)[C@H](O)CC[C@]2(C)[C@H]1CC(Nc1cc[nH]c(=O)n1)C1=CCOC1=O (some centres unmarked) [Example 49, 14-Deoxy-12-[N-(1,2-dihydro-2-pyrimidinone)amino]andrographolide] yielded a melting point of 163 °C.
C=C1CCC2[C@]3(C)COC(c4ccccc4)OC3CC[C@]2(C)[C@H]1CC(NCc1ccccc1)C1=CCOC1=O (some centres unmarked) [Example 24, 3,19-O-Benzylidene-12-(N-benzylamino)-14-deoxy andrographolide] showed a melting point of 172 to 173 °C.
With C=C1CCC2[C@](C)(CO)[C@H](O)CC[C@]2(C)[C@H]1CC(Sc1ccccc1)C1=CCOC1=O (some centres unmarked) [Example 63, 14-Deoxy-12-phenylthio andrographolide] the melting point was 105 °C and the “Stimulation Index (SI)” value [1] was 59.
For C=C1CCC2[C@]3(C)COC(C)(C)OC3CC[C@]2(C)[C@H]1CC(NC(Cc1ccccc1)C(=O)OC)C1=CCOC1=O (some centres unmarked) [Example 20, 14-Deoxy-3,19-O-isopropylidene-12-(methylphenylalanino)andrographolide], the melting point was 57 °C.
Compound C=C1CCC2[C@](C)(CO)C(O)CC[C@]2(C)[C@H]1CC(Nc1ccc(OC)c(OC)c1)C1=CCOC1=O (some centres unmarked) [Example 37, 14-Deoxy-12-(3,4-dimethoxyanilino)andrographolide] has a melting point of 225 to 230 °C.
